Results: the supplement of paper PMC6045584
± gives the standard deviation of the averaged measurements.

These test systems were tested with COc1cc2c(cc1O)CC[C@@H]1[C@@H]2CC[C@]2(C)[C@@H](O)CC[C@@H]12 [2-METHOXYESTRADIOL] (assay: surviving fraction relative to DMSO-only wells; higher = less growth inhibition). Conditions: 0.5 nM; exposure time: 5 days.
How it was run: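 Inhibitors at 0.5, 1, 5, 10, 50, 100, 500 and 1000 nM were applied continuously for five days to tumour cell lines seeded in log phase at 250–500 cells per well in 384-well plates 24 hours earlier. Viability was measured by CellTiter-Glo luminescence and expressed as surviving fraction relative to the median of DMSO-only wells. Luminescence was taken after 10 minutes at room temperature.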
Test System SCC36 HEADNECK has a surviving fraction of 1.09 ± 0.053. For OS25HAL BONE, the surviving fraction was 0.828 ± 0.2. In the case of HCC1806 BREAST, the surviving fraction is reported as 0.946 ± 0.076. HU09 BONE gave a surviving fraction of 1.02 ± 0.055. SG43 HEADNECK showed a surviving fraction of 0.84 ± 0.071. U2OS BONE gave a surviving fraction of 1.03 ± 0.016. With HOSMNG BONE the surviving fraction was 0.97 ± 0.12. Work on CASKI CERVIX yielded a surviving fraction of 0.889 ± 0.044. Test System SUM44 BREAST has a surviving fraction of 1.14 ± 0.32. MDAMB231 BREAST was tested, and the surviving fraction was 0.964 ± 0.0098. Test System CAL51 BREAST has a surviving fraction of 0.949 ± 0.068. Test System MDAMB436 BREAST has a surviving fraction of 0.944 ± 0.012. Test System HSSYII SYNOVIAL has a surviving fraction of 0.901 ± 0.024. RDES SOFT TISSUE showed a surviving fraction of 1.26 ± 0.16. For MDAMB157 BREAST, the surviving fraction was 0.873 ± 0.086. CHLA90 AUTONOMIC GANGLIA was tested, and the surviving fraction was 0.969 ± 0.059. CADOES1 SOFT TISSUE gave a surviving fraction of 0.795 ± 0.055. In the case of SG31 HEADNECK, the surviving fraction is reported as 1.09 ± 0.23. In the case of SCC47 HEADNECK, the surviving fraction is reported as 0.816 ± 0.11. In the case of S68 BREAST, the surviving fraction is reported as 0.845 ± 0.17. Work on SNU475 LIVER yielded a surviving fraction of 0.989 ± 0.048. Work on 22RV1 PROSTATE yielded a surviving fraction of 1.01 ± 0.057. With SG32 HEADNECK the surviving fraction was 1.04 ± 0.1. With SCC003 HEADNECK the surviving fraction was 0.936 ± 0.064. “JURKAT HAEMATOPOIETIC AND LYMPHOID TISSUE” showed a surviving fraction of 1.08 ± 0.021. With HT1080 SOFT TISSUE the surviving fraction was 1.01 ± 0.011. For CAL120 BREAST, the surviving fraction was 0.915 ± 0.051. With MCF7 BREAST the surviving fraction was 0.846 ± 0.015. For MFM223 BREAST, the surviving fraction was 1.11 ± 0.1. With LNCAP PROSTATE the surviving fraction was 1.01 ± 0.039. In the case of PCI30 HEADNECK, the surviving fraction is reported as 0.783 ± 0.016. OSHN BONE was tested, and the surviving fraction was 1.03 ± 0.012. SG28 HEADNECK was tested, and the surviving fraction was 1.07 ± 0.037. HOS BONE showed a surviving fraction of 0.996 ± 0.013. In the case of HUO3N1 BONE, the surviving fraction is reported as 1.01 ± 0.012. Test System BT20 BREAST has a surviving fraction of 1.08 ± 0.068. With SJSA1 BONE the surviving fraction was 0.941 ± 0.086. JIMT1 BREAST gave a surviving fraction of 0.985 ± 0.032. In the case of HCC78 LUNG, the surviving fraction is reported as 0.781 ± 0.22. Work on NY BONE yielded a surviving fraction of 0.95 ± 0.026. Test System NOS1 BONE has a surviving fraction of 1.19 ± 0.077.

Same assay, conditions: 1 nM; exposure time: 5 days
For SCC36 HEADNECK, the surviving fraction was 1.03 ± 0.052. OS25HAL BONE gave a surviving fraction of 0.94 ± 0.029. In the case of HCC1806 BREAST, the surviving fraction is reported as 1.02 ± 0.052. In the case of HU09 BONE, the surviving fraction is reported as 0.959 ± 0.03. For SG43 HEADNECK, the surviving fraction was 0.88 ± 0.13. With U2OS BONE the surviving fraction was 1.013 ± 0.0046. Work on HOSMNG BONE yielded a surviving fraction of 0.966 ± 0.034. For CASKI CERVIX, the surviving fraction was 0.923 ± 0.029. SUM44 BREAST gave a surviving fraction of 1.15 ± 0.3. Work on MDAMB231 BREAST yielded a surviving fraction of 0.949 ± 0.011. For CAL51 BREAST, the surviving fraction was 1.01 ± 0.081. With MDAMB436 BREAST the surviving fraction was 0.951 ± 0.19. HSSYII SYNOVIAL showed a surviving fraction of 0.926 ± 0.01. RDES SOFT TISSUE gave a surviving fraction of 1.26 ± 0.086. With MDAMB157 BREAST the surviving fraction was 0.947 ± 0.022. CHLA90 AUTONOMIC GANGLIA gave a surviving fraction of 0.89 ± 0.077. CADOES1 SOFT TISSUE showed a surviving fraction of 0.875 ± 0.099. For SG31 HEADNECK, the surviving fraction was 1.12 ± 0.13. SCC47 HEADNECK gave a surviving fraction of 0.912 ± 0.15. Work on S68 BREAST yielded a surviving fraction of 0.812 ± 0.15. SNU475 LIVER showed a surviving fraction of 1.01 ± 0.032. Work on 22RV1 PROSTATE yielded a surviving fraction of 1.09 ± 0.17. SG32 HEADNECK showed a surviving fraction of 0.985 ± 0.03. SCC003 HEADNECK was tested, and the surviving fraction was 0.88 ± 0.13. For “JURKAT HAEMATOPOIETIC AND LYMPHOID TISSUE”, the surviving fraction was 1.08 ± 0.014. HT1080 SOFT TISSUE gave a surviving fraction of 1.02 ± 0.018. In the case of CAL120 BREAST, the surviving fraction is reported as 0.912 ± 0.083. MCF7 BREAST was tested, and the surviving fraction was 0.837 ± 0.017. For MFM223 BREAST, the surviving fraction was 1.11 ± 0.062. LNCAP PROSTATE was tested, and the surviving fraction was 0.922 ± 0.039. PCI30 HEADNECK gave a surviving fraction of 0.857 ± 0.019. With OSHN BONE the surviving fraction was 1.046 ± 0.0025. For SG28 HEADNECK, the surviving fraction was 1.18 ± 0.096. Test System HOS BONE has a surviving fraction of 0.992 ± 0.029. Work on HUO3N1 BONE yielded a surviving fraction of 0.994 ± 0.037. Work on BT20 BREAST yielded a surviving fraction of 1.09 ± 0.062. Test System SJSA1 BONE has a surviving fraction of 1.68 ± 0.14. Test System JIMT1 BREAST has a surviving fraction of 1.04 ± 0.029. HCC78 LUNG showed a surviving fraction of 0.786 ± 0.076. NY BONE was tested, and the surviving fraction was 0.952 ± 0.014. NOS1 BONE gave a surviving fraction of 1.15 ± 0.063.

Same assay, conditions: 5 nM; exposure time: 5 days
For SCC36 HEADNECK, the surviving fraction was 1.09 ± 0.083. OS25HAL BONE showed a surviving fraction of 0.961 ± 0.021. With HCC1806 BREAST the surviving fraction was 1.03 ± 0.083. HU09 BONE was tested, and the surviving fraction was 1.02 ± 0.024. SG43 HEADNECK was tested, and the surviving fraction was 0.807 ± 0.25. U2OS BONE was tested, and the surviving fraction was 1.02 ± 0.043. HOSMNG BONE gave a surviving fraction of 0.957 ± 0.1. Test System CASKI CERVIX has a surviving fraction of 0.899 ± 0.078. SUM44 BREAST gave a surviving fraction of 1.14 ± 0.23. MDAMB231 BREAST was tested, and the surviving fraction was 0.9675 ± 0.0069. CAL51 BREAST was tested, and the surviving fraction was 0.992 ± 0.018. For MDAMB436 BREAST, the surviving fraction was 1 ± 0.016. With HSSYII SYNOVIAL the surviving fraction was 0.923 ± 0.043. Work on RDES SOFT TISSUE yielded a surviving fraction of 1.15 ± 0.046. Test System MDAMB157 BREAST has a surviving fraction of 0.935 ± 0.05. Work on CHLA90 AUTONOMIC GANGLIA yielded a surviving fraction of 0.879 ± 0.074. For CADOES1 SOFT TISSUE, the surviving fraction was 0.846 ± 0.11. With SG31 HEADNECK the surviving fraction was 0.996 ± 0.26. SCC47 HEADNECK was tested, and the surviving fraction was 0.977 ± 0.055. For S68 BREAST, the surviving fraction was 0.879 ± 0.13. SNU475 LIVER was tested, and the surviving fraction was 0.967 ± 0.026. Test System 22RV1 PROSTATE has a surviving fraction of 1.04 ± 0.07. Work on SG32 HEADNECK yielded a surviving fraction of 1.04 ± 0.21. SCC003 HEADNECK showed a surviving fraction of 1.03 ± 0.045. Test System “JURKAT HAEMATOPOIETIC AND LYMPHOID TISSUE” has a surviving fraction of 1.03 ± 0.005. HT1080 SOFT TISSUE showed a surviving fraction of 1.05 ± 0.016. Work on CAL120 BREAST yielded a surviving fraction of 0.944 ± 0.076. Test System MCF7 BREAST has a surviving fraction of 0.857 ± 0.0097. MFM223 BREAST gave a surviving fraction of 1.1 ± 0.093. Test System LNCAP PROSTATE has a surviving fraction of 0.975 ± 0.094. Work on PCI30 HEADNECK yielded a surviving fraction of 1.03 ± 0.039. For OSHN BONE, the surviving fraction was 1.05 ± 0.026. With SG28 HEADNECK the surviving fraction was 0.94 ± 0.0042. In the case of HOS BONE, the surviving fraction is reported as 1.02 ± 0.02. In the case of HUO3N1 BONE, the surviving fraction is reported as 1.05 ± 0.05. BT20 BREAST was tested, and the surviving fraction was 1.07 ± 0.082. Work on SJSA1 BONE yielded a surviving fraction of 1.73 ± 0.12. With JIMT1 BREAST the surviving fraction was 1.03 ± 0.023. Test System HCC78 LUNG has a surviving fraction of 0.866 ± 0.094. In the case of NY BONE, the surviving fraction is reported as 0.983 ± 0.021. NOS1 BONE gave a surviving fraction of 1.27 ± 0.18.

Same assay, conditions: 10 nM; exposure time: 5 days
With SCC36 HEADNECK the surviving fraction was 1.04 ± 0.091. With OS25HAL BONE the surviving fraction was 0.945 ± 0.042. Work on HCC1806 BREAST yielded a surviving fraction of 1.11 ± 0.052. For HU09 BONE, the surviving fraction was 1.1 ± 0.1. SG43 HEADNECK was tested, and the surviving fraction was 1.04 ± 0.39. With U2OS BONE the surviving fraction was 1.02 ± 0.017. In the case of HOSMNG BONE, the surviving fraction is reported as 1 ± 0.046. For CASKI CERVIX, the surviving fraction was 0.939 ± 0.063. For SUM44 BREAST, the surviving fraction was 1.12 ± 0.2. With MDAMB231 BREAST the surviving fraction was 0.963 ± 0.018. CAL51 BREAST showed a surviving fraction of 0.996 ± 0.063. MDAMB436 BREAST was tested, and the surviving fraction was 0.953 ± 0.065. HSSYII SYNOVIAL was tested, and the surviving fraction was 0.997 ± 0.046. RDES SOFT TISSUE gave a surviving fraction of 1.29 ± 0.11. MDAMB157 BREAST was tested, and the surviving fraction was 0.983 ± 0.12. With CHLA90 AUTONOMIC GANGLIA the surviving fraction was 0.888 ± 0.022. With CADOES1 SOFT TISSUE the surviving fraction was 0.894 ± 0.18. Test System SG31 HEADNECK has a surviving fraction of 1.09 ± 0.084. Work on SCC47 HEADNECK yielded a surviving fraction of 1.1 ± 0.16. S68 BREAST was tested, and the surviving fraction was 1.16 ± 0.3. With SNU475 LIVER the surviving fraction was 0.968 ± 0.06. Test System 22RV1 PROSTATE has a surviving fraction of 1.07 ± 0.15. SG32 HEADNECK was tested, and the surviving fraction was 0.96 ± 0.083. For SCC003 HEADNECK, the surviving fraction was 0.976 ± 0.074. “JURKAT HAEMATOPOIETIC AND LYMPHOID TISSUE” was tested, and the surviving fraction was 1.02 ± 0.033. HT1080 SOFT TISSUE was tested, and the surviving fraction was 0.987 ± 0.058. In the case of CAL120 BREAST, the surviving fraction is reported as 0.927 ± 0.029. MCF7 BREAST was tested, and the surviving fraction was 0.8506 ± 0.0053. MFM223 BREAST was tested, and the surviving fraction was 1.17 ± 0.35. With LNCAP PROSTATE the surviving fraction was 0.901 ± 0.092. Test System PCI30 HEADNECK has a surviving fraction of 0.985 ± 0.057. In the case of OSHN BONE, the surviving fraction is reported as 1.031 ± 0.0067. With SG28 HEADNECK the surviving fraction was 1.11 ± 0.016. HOS BONE gave a surviving fraction of 1.004 ± 0.0095. Test System HUO3N1 BONE has a surviving fraction of 1.03 ± 0.057. Test System BT20 BREAST has a surviving fraction of 1.05 ± 0.076. With SJSA1 BONE the surviving fraction was 1.72 ± 0.037. JIMT1 BREAST gave a surviving fraction of 1 ± 0.031. HCC78 LUNG showed a surviving fraction of 1.02 ± 0.24. Test System NY BONE has a surviving fraction of 0.994 ± 0.017. Test System NOS1 BONE has a surviving fraction of 1.28 ± 0.14.
